From article PMC8284453 (Antimicrobial Agents and Chemotherapy, 2021)
Read-outs that look alike come from different tables or passages of the source.

Experiments:
[1] = system: K. pneumoniae ATCC BAA-1705 (KPC-2); experiment: Broth microdilution MIC; format: cell-based; settings: modal value, 5 independent determinations
[2] = system: Enterobacterales expressing class A ESBLs; experiment: organism not typed; format: cell-based, E. coli, K. pneumoniae; settings: 25 isolates; BLI fixed at 4 μg/ml, AMC 2:1
[3] = system: Enterobacterales expressing class C cephalosporinases
E. coli ESBL4 (CTX-M-15) [4] = experiment: Broth microdilution MIC; format: cell-based; settings: modal value, 5 independent determinations
[5] = system: isogenic strains of E. coli expressing Ambler class A, B, C, and D enzymes; experiment: microbe, parasite or virus in culture; format: cell-based, Escherichia coli
[6] = system: K. pneumoniae 752286 (OXA-48); experiment: Broth microdilution MIC; format: cell-based; settings: modal value, 5 independent determinations
[7] = system: Enterobacterales expressing class A carbapenemases (KPC); experiment: organism not typed; format: cell-based, K. pneumoniae, E. coli, E. cloacae, Klebsiella oxytoca
[8] = system: Enterobacterales expressing class D oxacillinases (OXA-48/48-like); experiment: organism not typed; format: cell-based, E. coli, K. pneumoniae; settings: for MIC50 / MIC90: 25 isolates, BLI fixed at 4 μg/ml, AMC 2:1
[9] = system: K. pneumoniae ATCC BAA-1705 (KPC-2); experiment: 24-h time-kill assay; format: cell-based; settings: lowest concentration with ≥3-log10 CFU/ml reduction at 24 h
Protocol: (§1) In vitro antibacterial time-kill assay. […] Time-kill assays were performed in 14 ml glass tubes or deep-well storage plates with a bacterial inoculum in CAMHB of 5 × 10^5 CFU/ml. The tubes/plates were incubated at 37°C with shaking at 200 rpm, and aliquots were drawn at six time points (0, 2, 4, 6, 8, and 24 h) to conduct 0.5 log10 dilutions in CAMHB in 96-well plates that were incubated overnight at 37°C and used to ascertain viable bacterial counts. The lowest quantifiable amount by this method is 2 log10 CFU/ml.

E. coli ESBL4 (CTX-M-15) [10] = experiment: 24-h time-kill assay; format: cell-based
Protocol: as §1

[11] = system: E. cloacae ECL01 (TEM-72, ACT-1, P99AmpC); experiment: 24-h time-kill assay; format: cell-based; settings: lowest concentration with ≥3-log10 CFU/ml reduction at 24 h
Protocol: as §1

[12] = system: K. pneumoniae 752286 (OXA-48); experiment: 24-h time-kill assay; format: cell-based; settings: lowest concentration with ≥3-log10 CFU/ml reduction at 24 h
Protocol: as §1

[13] = system: E. cloacae ECL01 (TEM-72, ACT-1, P99AmpC); experiment: Broth microdilution MIC; format: cell-based; settings: modal value, 5 independent determinations
[14] = 25 isolates, BLI fixed at 4 μg/ml, AMC 2:1

C[C@@H](O)[C@H]1C(=O)N2C(C(=O)O)=C(S[C@H]3CC[S@@+]([O-])C3)S[C@H]12 [Sulopenem]
≥ 64 µg/mL: MIC90 ([7]; 25 isolates, BLI fixed at 4 μg/ml, AMC 2:1, listed as sulopenem) | MIC ([7]; E. cloacae 847426 (KPC)) | MIC ([7]; E. cloacae 847429 (KPC)) | MIC ([7]; E. cloacae OIMGH49 (p99 AmpC, ACT-2, KPC-2, TEM-1)) | MIC ([7]; E. coli 786978 (KPC)) | MIC ([7]; K. oxytoca 847537 (KPC)) | MIC ([7]; K. pneumoniae 155140 (AmpC, KPC-2, SHV-12, TEM-1)) | MIC ([7]; K. pneumoniae 845661 (KPC)) | MIC ([7]; K. pneumoniae 845662 (KPC)) | MIC ([7]; K. pneumoniae 845665 (KPC)) | MIC ([7]; K. pneumoniae 845667 (KPC)) | MIC ([7]; K. pneumoniae 847384 (KPC)) | MIC ([7]; K. pneumoniae 848832 (KPC)) | MIC ([8]; K. pneumoniae 664509 (OXA-48))
4 µg/mL: MIC ([3]; S. marcescens 218068 (AmpC, SHV-7, TEM-1)) | MIC ([7]; K. oxytoca 847539 (KPC)) | MIC ([8]; E. coli 664523 (OXA-48)) | MIC ([8]; E. coli SI-422 (OXA-48)) | MIC ([8]; E. coli VER (OXA-48)) | MIC ([8]; K. pneumoniae 515746 (OXA-48), second line) | MIC ([8]; K. pneumoniae BAH (OXA-204)) | MIC ([8]; K. pneumoniae KIRK (OXA-162))
0.5 µg/mL: MIC90 [2]
2: Fold increase in MIC compared to vector control [5]
256: Fold increase in MIC compared to vector control ([5]; E. coli expressing GES-5 (class A), inhibitor fixed at 4 μg/ml)
bactericidal activity: outcome of 24-h time-kill assay (E. coli ESBL4 (CTX-M-15) [10]; Fig. 3a, CTB 2 μg/ml with BLI at 4 μg/ml, CTB alone 8 μg/ml, amoxicillin 8/clavulanic acid 4 μg/ml, penems 2 μg/ml)
8 µg/mL: MIC ([3]; S. marcescens 134434 (AmpC, SHV-12, TEM-1)) | MIC ([7]; K. pneumoniae 847379 (KPC)) | MIC ([7]; K. pneumoniae 897067 (KPC)) | MIC50 [8] | MIC ([8]; E. coli 664507 (OXA-48)) | MIC ([8]; E. coli 664520 (OXA-48)) | MIC ([8]; E. coli 664524 (OXA-48)) | MIC ([8]; E. coli 664526 (OXA-48)) | MIC ([8]; E. coli 664528 (OXA-48)) | MIC ([8]; K. pneumoniae 664438 (OXA-48)) | MIC ([8]; K. pneumoniae 664439 (OXA-48)) | MIC ([8]; K. pneumoniae 664518 (OXA-48)) | MIC ([8]; K. pneumoniae 722870 (OXA-48))
4: Fold increase in MIC compared to vector control ([5]; E. coli expressing CTX-M-15 (class A), inhibitor fixed at 4 μg/ml) | Fold increase in MIC compared to vector control ([5]; E. coli expressing SHV-12 (class A), inhibitor fixed at 4 μg/ml) | Fold increase in MIC compared to vector control ([5]; E. coli expressing VEB-9 (class A), inhibitor fixed at 4 μg/ml)
1 µg/mL: MIC ([3]; P. mirabilis SI-F014 (AmpC, TEM-72)) | MIC ([3]; S. marcescens 156212 (AmpC, SHV-12, TEM-1)) | MIC ([8]; K. pneumoniae 6299 (OXA-163)) | MBC [11] | MIC [13]
2,048: Fold increase in MIC compared to vector control ([5]; E. coli expressing KPC-2 (class A), inhibitor fixed at 4 μg/ml) | Fold increase in MIC compared to vector control ([5]; E. coli expressing KPC-3 (class A), inhibitor fixed at 4 μg/ml)
0.06 µg/mL: MIC ([3]; C. freundii 134390 (AmpC, TEM-1)) | MIC ([3]; E. aerogenes 110099 (AmpC, SHV-12)) | MIC ([3]; E. coli CH1 (AmpC, CTX-M-15, SHV-1, SHV-5, TEM-1)) | MIC ([3]; E. coli J53 (AmpC, SHV-5, TEM-1)) | MIC ([3]; K. pneumoniae 129032 (MOX-2, SHV-12, TEM-1)) | MIC ([3]; K. pneumoniae 178279 (AmpC, SHV-12, TEM-1)) | MIC ([3]; K. pneumoniae 217917 (CMY-2, TEM-1)) | MIC ([3]; K. pneumoniae 398845 (CMY-2, SHV-12, TEM-1))
4 to 8 µg/mL: MIC50 ([8]; listed as sulopenem)
0.03 µg/mL: MIC ([3]; E. coli 128 (AmpC, SHV-12, TEM-1, Toho-2)) | MIC ([3]; E. coli 3102 (AmpC, CTX-M-15, TEM-1)) | MIC ([3]; E. coli EC469 (AmpC, SHV-12, TEM-1)) | MIC ([3]; K. pneumoniae 212027 (AmpC, FOX-5, TEM-1)) | MIC ([3]; K. pneumoniae SI-F100 (CMY-2, SHV-5, TEM-1))
32 µg/mL: MIC [1] | MIC50 [7, 14] | MIC ([7]; K. pneumoniae 847204 (KPC)) | MIC ([7]; K. pneumoniae 847375 (KPC)) | MIC ([7]; K. pneumoniae 847378 (KPC)) | MIC ([7]; K. pneumoniae 847383 (KPC)) | MIC ([7]; K. pneumoniae 847387 (KPC)) | MIC ([7]; K. pneumoniae 847747 (KPC)) | MIC ([7]; K. pneumoniae 848844 (KPC)) | MIC ([8]; K. pneumoniae DEL (OXA-232)) | MBC [9]
16 to 32 µg/mL: MIC90 ([8]; listed as sulopenem)
64: Fold increase in MIC compared to vector control ([5]; E. coli expressing OXA-23 (class D), inhibitor fixed at 4 μg/ml)
512: Fold increase in MIC compared to vector control ([5]; E. coli expressing OXA-48 (class D), inhibitor fixed at 4 μg/ml)
0.12 µg/mL: MIC50 [2] | MIC ([3]; E. aerogenes 111707 (AmpC, TEM-1)) | MIC ([3]; E. coli SI-PO26 (AmpC, CMY-2, TEM-1)) | MIC ([3]; K. pneumoniae 301313 (AmpC, SHV-12, TEM-1)) | MIC (E. coli ESBL4 (CTX-M-15) [4]) | MBC (E. coli ESBL4 (CTX-M-15) [10]; lowest concentration with ≥3-log10 CFU/ml reduction at 24 h)
8: Fold increase in MIC compared to vector control ([5]; E. coli expressing ACT-17 (class C), inhibitor fixed at 4 μg/ml) | Fold increase in MIC compared to vector control ([5]; E. coli expressing CMY-2 (class C), inhibitor fixed at 4 μg/ml) | Fold increase in MIC compared to vector control ([5]; E. coli expressing OXA-163 (class D), inhibitor fixed at 4 μg/ml) | Fold increase in MIC compared to vector control ([5]; E. coli expressing PER-1 (class A), inhibitor fixed at 4 μg/ml) | Fold increase in MIC compared to vector control ([5]; E. coli expressing SHV-5 (class A), inhibitor fixed at 4 μg/ml)
>32 µg/mL: MBC [12]
1,024: Fold increase in MIC compared to vector control ([5]; E. coli expressing NDM-1 (class B), inhibitor fixed at 4 μg/ml) | Fold increase in MIC compared to vector control ([5]; E. coli expressing OXA-181 (class D), inhibitor fixed at 4 μg/ml)
0.25 µg/mL: MIC ([3]; E. aerogenes 111902 (AmpC, TEM-1)) | MIC ([3]; E. coli SI-P026TC (CMY-2, TEM-1)) | MIC ([3]; S. marcescens 192478 (AmpC, SHV-12, TEM-1))
2 µg/mL: MIC90 [3, 14] | MIC ([3]; S. marcescens 132253 (AmpC, CTX-M-3, OXA-1, SHV-12, TEM-1)) | MIC ([3]; S. marcescens 142397 (AmpC, SHV-7, TEM-1)) | MIC ([8]; K. pneumoniae 515746 (OXA-48), first line) | MIC ([8]; K. pneumoniae DOV (OXA-48))
16: Fold increase in MIC compared to vector control ([5]; E. coli expressing CMY-42 (class C), inhibitor fixed at 4 μg/ml) | Fold increase in MIC compared to vector control ([5]; E. coli expressing KPC-3 D179Y (class A), inhibitor fixed at 4 μg/ml) | Fold increase in MIC compared to vector control ([5]; E. coli expressing P99/AmpC (class C), inhibitor fixed at 4 μg/ml)
0.03 to 1 µg/mL: MIC range [2]
16 µg/mL: MIC [6] | MIC ([7]; K. pneumoniae 845670 (KPC)) | MIC ([7]; K. pneumoniae 845904 (KPC)) | MIC ([7]; K. pneumoniae UMM (KPC-2, SHV-5, TEM-1)) | MIC90 [8] | MIC ([8]; E. coli 664516 (OXA-48)) | MIC ([8]; E. coli 664522 (OXA-48)) | MIC ([8]; E. coli 664525 (OXA-48)) | MIC ([8]; E. coli 787112 (OXA-48)) | MIC ([8]; K. pneumoniae SI-C17 (OXA-48))
